Key:
physchem = details: 5 mM glutathione
MIA PaCa-2 cells [1] = test: Cell viability assay (CellTiter-Glo, adherent); assay type: cell-based; details: Homo sapiens, 72-hour treatment
Protocol: (§1) For adherent viability assays, 0.5-1.0E+03 cells were seeded per well in 384-well plates (or 2.5-4.0E+04 cells per well in 96-well plates) and incubated at 37° C., 5% CO2, o/n. The following day, serially-diluted compound or DMSO was added to the cells, and the plates were incubated at 37° C., 5% CO2 for 72 hours. Cell viability was measured using a CellTiter-Glo® Luminescent Cell Viability Assay kit (Promega) according to the manufacturer's protocol. The luminescence signal of treated samples was normalized to DMSO control.

SW1573 cells [2] = test: Cell viability assay (CellTiter-Glo, adherent); assay type: cell-based; details: Homo sapiens, SW1573, lung, KRAS p.G12C homozygous, 72-hour treatment
Protocol: as §1

NCI-H2122 cells [3] = test: Cell viability assay (CellTiter-Glo, adherent); assay type: cell-based; details: Homo sapiens, NCI-H2122, lung, KRAS p.G12C homozygous, 72-hour treatment
Protocol: as §1

NCI-H1355 cells = test: Cell viability assay (CellTiter-Glo, adherent); assay type: cell-based; details: Homo sapiens, NCI-H1355, lung, KRAS p.G13C heterozygous, 72-hour treatment
Protocol: as §1

NCI-H1792 cells = test: Cell viability assay (CellTiter-Glo, adherent); assay type: cell-based; details: Homo sapiens, NCI-H1792, lung, KRAS p.G12C heterozygous, 72-hour treatment
Protocol: as §1

NCI-H358 cells [4] = test: Cell viability assay (CellTiter-Glo, adherent); assay type: cell-based; details: Homo sapiens, 72-hour treatment
Protocol: as §1

COLO-205 cells = test: Cell viability assay (CellTiter-Glo, adherent); assay type: cell-based; details: Homo sapiens, COLO-205, colon, KRAS WT BRAF p.V600E, 72-hour treatment
Protocol: as §1

SW1463 cells = test: Cell viability assay (CellTiter-Glo, adherent); assay type: cell-based; details: Homo sapiens, SW1463, colon, KRAS p.G12C homozygous, 72-hour treatment
Protocol: as §1

HCC-827 cells = test: Cell viability assay (CellTiter-Glo, adherent); assay type: cell-based; details: Homo sapiens, HCC827, HCC-827, lung, KRAS WT EGFR p.E746_A750del, 72-hour treatment
Protocol: as §1

NCI-H1373 cells [5] = test: Cell viability assay (CellTiter-Glo, adherent); assay type: cell-based; details: Homo sapiens, NCI-H1373, lung, KRAS p.G12C homozygous, 72-hour treatment
Protocol: as §1

SW480 cells = test: Cell viability assay (CellTiter-Glo, adherent); assay type: cell-based; details: Homo sapiens, SW480, colon, KRAS p.G12V homozygous, 72-hour treatment
Protocol: as §1

A549 cells = test: Cell viability assay (CellTiter-Glo, adherent); assay type: cell-based; details: Homo sapiens, A549, lung, KRAS p.G12S homozygous, 72-hour treatment
Protocol: as §1

Calu-1 cells = test: Cell viability assay (CellTiter-Glo, adherent); assay type: cell-based; details: Homo sapiens, Calu-1, lung, KRAS p.G12C heterozygous, 72-hour treatment
Protocol: as §1

KM12 cells = test: Cell viability assay (CellTiter-Glo, adherent); assay type: cell-based; details: Homo sapiens, KM12, colon, KRAS WT TPM3-NTRK fusion, 72-hour treatment
Protocol: as §1

UM-UC-3 cells = test: Cell viability assay (CellTiter-Glo, adherent); assay type: cell-based; details: Homo sapiens, UMUC3, UM-UC-3, bladder, KRAS p.G12C homozygous, 72-hour treatment
Protocol: as §1

LS 174T cells = test: Cell viability assay (CellTiter-Glo, adherent); assay type: cell-based; details: Homo sapiens, LS174T, colon, KRAS p.G12D heterozygous, 72-hour treatment
Protocol: as §1

NCI-H2030 cells = test: Cell viability assay (CellTiter-Glo, adherent); assay type: cell-based; details: Homo sapiens, NCI-H2030, lung, KRAS p.G12C homozygous, 72-hour treatment
Protocol: as §1

AsPC-1 cells = test: Cell viability assay (CellTiter-Glo, adherent); assay type: cell-based; details: Homo sapiens, ASPC1, AsPC-1, pancreas, KRAS p.G12D homozygous, 72-hour treatment
Protocol: as §1

NCI-H23 cells = test: Cell viability assay (CellTiter-Glo, adherent); assay type: cell-based; details: Homo sapiens, NCI-H23, lung, KRAS p.G12C heterozygous, 72-hour treatment
Protocol: as §1

NCI-H1322 cells = test: Cell viability assay (CellTiter-Glo, adherent); assay type: cell-based; details: Homo sapiens, 72 h, read-out: Cell Viability IC50
Protocol: as §1

A-427 cells = test: Cell viability assay (CellTiter-Glo, adherent); assay type: cell-based; details: Homo sapiens, A-427, lung, KRAS p.G12D heterozygous, 72-hour treatment
Protocol: as §1

SW837 cells = test: Cell viability assay (CellTiter-Glo, adherent); assay type: cell-based; details: Homo sapiens, SW837, colon, KRAS p.G12C heterozygous, 72-hour treatment
Protocol: as §1

MIA PaCa-2 cells [6] = test: Spheroid cell viability assay (CellTiter-Glo 3D); assay type: cell-based; details: Homo sapiens; MIA PaCa-2, pancreas, KRAS p.G12C homozygous; 72-hour treatment, spheroid culture
Protocol: (§2) For spheroid viability assays, 2.5-4.0E+04 cells were seeded per well in 96-well spheroid microplates (Corning) and incubated at 37° C., 5% CO2 for 24 hours. The same procedure was followed as described above, except viability was measured using a CellTiter-Glo® 3D Cell Viability Assay kit (Promega) according to the manufacturer's protocol.

SW1573 cells [7] = test: Spheroid cell viability assay (CellTiter-Glo 3D); assay type: cell-based; details: Homo sapiens; SW1573, lung, KRAS p.G12C homozygous; 72-hour treatment, spheroid culture
Protocol: as §2

NCI-H2122 cells [8] = test: Spheroid cell viability assay (CellTiter-Glo 3D); assay type: cell-based; details: Homo sapiens; NCI-H2122, lung, KRAS p.G12C homozygous; 72-hour treatment, spheroid culture
Protocol: as §2

NCI-H358 cells [9] = test: Spheroid cell viability assay (CellTiter-Glo 3D); assay type: cell-based; details: Homo sapiens; NCI-H358, lung, KRAS p.G12C heterozygous; 72-hour treatment, spheroid culture
Protocol: as §2

NCI-H1373 cells [10] = test: Spheroid cell viability assay (CellTiter-Glo 3D); assay type: cell-based; details: Homo sapiens; NCI-H1373, lung, KRAS p.G12C homozygous; 72-hour treatment, spheroid culture
Protocol: as §2

`C=CC(=O)N1CCN(c2nc(=O)n(-c3c(C)ccnc3C(C)C)c3nc(-c4c(O)cccc4F)c(F)cc23)[C@@H](C)C1` (atropisomer, axis not shown) [AMG 510, 6-fluoro-7-(2-fluoro-6-hydroxyphenyl)-1-(4-methyl-2-(2-propanyl)-3-pyridinyl)-4-((2S)-2-methyl-4-(2-propenoyl)-1-piperazinyl)pyrido[2,3-d]pyrimidin-2(1H)-one] showed a half-life (physchem) of 3.27 h, an IC50 (MIA PaCa-2 cells [1]; second of two lines (FIG. 40G: MIA PaCa-2), read-out: cellular viability IC50) of ~9 nM and an IC50 (MIA PaCa-2 cells [1]; MIA PaCa-2, pancreas, KRAS p.G12C homozygous, adherent, read-out: Cell Viability IC50) of 5 ± 1 nM. The IC50 (SW1573 cells [2]) was > 7500 nM, the IC50 (NCI-H2122 cells [3]) was 32 ± 5 nM and the IC50 (NCI-H1355 cells) was > 7500 nM. The IC50 (NCI-H1792 cells) was 11 ± 8 nM, the IC50 (NCI-H358 cells [4]; first of two lines (FIG. 40G: NCI-H358), read-out: cellular viability IC50) was ~6 nM and the IC50 (NCI-H358 cells [4]; NCI-H358, lung, KRAS p.G12C heterozygous, adherent, read-out: Cell Viability IC50) was 4 ± 1 nM. The IC50 (COLO-205 cells) was > 7500 nM, the IC50 (SW1463 cells) was 15 ± 7 nM and the IC50 (HCC-827 cells) was > 7500 nM. For the same compound, the IC50 (NCI-H1373 cells [5]) was 20 ± 6 nM, the IC50 (SW480 cells) was > 7500 nM and the IC50 (A549 cells) was > 7500 nM. The IC50 (Calu-1 cells) was 4 ± 1 nM, the IC50 (KM12 cells) was > 7500 nM and the IC50 (UM-UC-3 cells) was 5 ± 1 nM. For the same compound, the IC50 (LS 174T cells) was > 7500 nM, the IC50 (NCI-H2030 cells) was 6 ± 3 nM and the IC50 (AsPC-1 cells) was > 7500 nM. The IC50 (NCI-H23 cells) was 6 ± 1 nM, the IC50 (NCI-H1322 cells) was > 7500 nM and the IC50 (A-427 cells) was > 7500 nM. The IC50 (SW837 cells) was 9 ± 6 nM, the IC50 (MIA PaCa-2 cells [6]) was 1 ± 1 nM and the IC50 (SW1573 cells [7]) was > 10000 nM. For the same compound, the IC50 (NCI-H2122 cells [8]) was 9 ± 2 nM, the IC50 (NCI-H358 cells [9]) was 3 ± 2 nM and the IC50 (NCI-H1373 cells [10]) was 5 ± 2 nM.

— patent US12582657B2, “Combination therapy including a KRAS G12C inhibitor and one or more additional pharmaceutically active agents for the treatment of cancers” (Amgen Inc., priority 2018, dated 2026)
